In general, half-life refers to the time needed for the level to fall by half in the phase considered. Lower therefore signals rapid decline.

Here are results for one compound from paper PMC11403612, “Preparation and Preclinical Characterization of a Simple Ester for Dual Exogenous Supply of Lactate and Beta-hydroxybutyrate” (Journal of Agricultural and Food Chemistry, 2024).

A short description of this series: Stability of LaKe in plasma, human. Format: in vitro ADME. The following applies: thawed); human plasma (frozen). On the procedure:
The in vitro stability of LaKe was evaluated following incubation in simulated gastric fluid (SGF), simulated intestinal fluid (SIF), fresh and frozen plasma (rats and humans, respectively), and the presence of hepatocytes (rats and humans) and liver microsomes (rats and humans). At the chosen time points, the mixtures were analyzed by LC-MS/MS to quantify the remaining LaKe and all assays included at least one control compound with known pharmacokinetic properties. […]
centrifuged at 4000 rpm, 4℃ for 20 min. 60 μL of supernatant was mixed with 180 μL of purified water for subsequent LC/MS/MS analysis.
LC-MS/MS Condition: ACQUITY UPLC BEH C18 1.7um 2.1 * 50mm Column (Part No.186002350). Mobile phase: A: 0.1% Formic Acid in Water; B: 0.1% Formic Acid in ACN.
Stability of LaKe in simulated intestinal fluid (SIF)
Preparation of SIF-solution: 0.136 g KH2PO4 and 0.064 g pancreatin was dissolved H2O to a total volume of solution 20 mL. The pH of the test solution was adjusted to 6.80 ± 0.05.
Procedure: 2 μL of a 10mg/ml working solution of LaKe in DMSO was spiked into 96-deep-well plates corresponding to timepoints T0, T60, T120, T360 and T1440. Experiments were performed in duplicate. 198 μL of SIF solution was then transferred to the individual wells (except T0) to reach 0.1mg/ml as the final test concentration for each time point (60, 120, 360, 1440 minutes). […]

As for `CC(O)CCOC(=O)C(C)O` (stereo not shown) [LaKe, 3-hydroxybutyl 2-hydroxypropanoate], the half-life at 2 µM was less than 30 min.
